# Source: article PMC8342802, “A Novel Bacteriocin From Lactobacillus Pentosus ZFM94 and Its Antibacterial Mode of Action” (Frontiers in Nutrition, 2021)
# Where no end group is shown, it is not given here. [ ]: non-standard residue; d: D form. Abu = CC[C@H](N)C(=O)O; Dhb = C/C=C(\N)C(=O)O; Dha = C=C(N)C(=O)O
# Columns and labels:
# [1] = binding to lipid II, agar well-diffusion after mixing with lipid II; format: cell-based, Micrococcus luteus; conditions: 10 μm peptide with 20 μm lipid II, 4°C for 1 h, indicator M. luteus 10209
# Description: Studies have shown that lipid II was the target of nisin ([25]), and the combination of lipid II and nisin can mediate the formation of pores. Nisin and pentocin ZFM94 were mixed with lipid II, respectively. The final concentration of nisin or pentocin ZFM94 was 10 μm, while the concentration of lipid II was 20 μm. The mixture was maintained at 4°C for 1 h. The changes in the antibacterial activity were detected by the agar well-diffusion method. Micrococcus luteus 10209 was used as the indicator. Then, the size of the inhibition zone was observed.
# [2] = cited from earlier work
# Description: It retained 80.37% of its original antibacterial activity after heating at 80°C for 30 min. The antibacterial activity of pentocin ZFM94 was stable at pH 2–7. […] Pentocin ZFM94 was sensitive to trypsin and pepsin, but not to amylase, lysozyme, lipase, and ribonuclease A. Studies have reported that leuconocin S and carnocin 5 ...
substance,measurement,setting,value
"nisin (I[Dhb]AI[Dha]LC[Abu]PGCK[Abu]GALMGCNMK[Abu]A[Abu]CHCSIHV[Dha]K; thioether (positions not given here); not fully specified (residues 7, 11, 19, 26, 28, bridges); also: lantibiotic: thioether bridges and dehydrated residues, places not given here; UniProt P13068 24-57, looked up)",antibacterial effect after mixing with lipid II,[1],disappeared
same,activity at pH close to 7,[2],inactivated
